Measurements published in US20230160890A1, “COMPOSITIONS AND METHODS FOR DIAGNOSING NARCOLEPSY” (The Board of Trustees of the Leland Stanford Junior …, priority 2018, published 2023).
Entries after “also recorded” stand apart in the source; their conditions may differ. Ends that are not written are not given here. * marks the point of attachment. Biotin = O=C1N[C@H]2[C@H](CS[C@H]2CCCCC(=O)*)N1

What was measured:
[1] = test system: CD4+ T cells from T1N donors; assay: In vitro culturing of CD4+ T cells with peptide-loaded T2DQ6 APCs, then tetramer staining; format: cell-based, human; details: for Frequencies of tetramer+ cells after in vitro stimulation with the corresponding peptide: stained with the tetramer of the corresponding peptide
Source text: To test for the presence of DQ6-HCRTpeptide tetramer^+/CD4^+ T cells, a peptide-loaded antigen presenting cell (APC) line T2DQ6 (fixed to limit APC proliferation) was co-cultured with T cells for DQ6-restricted antigen stimulation. T2DQ6 was constructed by stable transfection of DQ6 (DQA1*01:02/DQB1*06:02) into T2, a class II deficient TxB hybrid cell^44. T2DQ6 cells were maintained in IMDM, GlutaMAX supplemented media (Thermo Fisher Scientific) with 10% HI FBS, 1% penicillin/streptomycin (P/S) and 1 mg/ml G418 (to maintain selective pressure on DQ6 transfectants). To load antigen, T2DQ6 cells were pulsed with peptides (i.e., EBV486-500, HCRT56-69, HCRT87-100, synthesized by Genscript) at 1 μM final concentration and incubated for 6 hours at 37° C. After peptide loading, 10 million T2DQ6 cells were washed with phosphate buffered saline (PBS) and then fixed by incubating with 0.025% glutaraldehyde in 2 ml PBS at RT for 30 seconds. After the addition of another 2 ml PBS, the cells were incubated for another 10 minutes at RT. Fixed T2DQ6 was washed twice with PBS and once with complete RPMI (RPMI 1640 medium supplemented with 10% HI human AB serum, 2 mM glutamine and 1% PS) before mixing with CD4^+ T cells. Human PBMCs frozen in NUNC tubes were thawed quickly at 37° C. and added slowly to 10 ml warm complete RPMI. PBMCs were pelleted and resuspended in cold buffer for CD4^+ T cell isolation. Cells were isolated from the PBMCs by negative selection, using the CD4^+ cell isolation kit, according to the manufacturer's instructions (Miltenyi Biotec). Isolated CD4^+ T cells were resuspended at 1×10^6 cells/ml in warm complete RPMI and rested for at least 1 hour before mixing with fixed T2DQ6 cells that were also resuspended at 1×10^6 cells/ml in warm complete RPMI. A mixture of 1:1 volume ratio of CD4^+ T cells and T2DQ6 cells in the presence of recombinant human IL-7 at final concentration of 2.5 ng/ml was aliquoted onto a 96-well plate and incubated at 37° C. for 6 days. On day 6 and day 9, 100 μl of the spent medium was removed from each well and replaced with fresh complete RPMI containing recombinant IL-7 at 2.5 ng/ml and IL-2 at 40 U/ml final concentrations. On day 12, a second round of antigen stimulation was performed similarly, using fixed T2DQ6 cells loaded with the corresponding peptides.
Sufficient cells from the co-culture were collected, washed with complete RPMI, and resuspended in 5 ml complete RPMI at RT prior to Ficoll gradient separation. Cells above the Ficoll media were washed and resuspended at 10×10^6 cells/ml in complete RPMI for blocking. […]

[2] = biological target: T1, soluble DQ6 (DQA1*01:02/DQB1*06:02) (Homo sapiens, UniProt P01909+P01920, A157G/A45G/C70R/E118A/E183D/E77G/F83G/G63E/H151Q/H199R/H252R/H253Q/I129T/I235V/I88M/INS77G/K197Q/L117V/L119F/L178F/L71W/L74F/L85Q/L91A/L98M/N214S/P87R/Q116E/Q76K/R102G/R240Q/R75S/R78G/S102Y/S185I/S41F/S97I/T121G/T122I/T172A/T86R/V229M/V68A/V73E/Y34C/Y41F/Y58L); assay: Peptide competition assay (inhibition of DQ6 binding of biotinylated EBV486-500)
T1 construct: 3C protease cleavage site (C); leucine zipper-Fos (C); cut by thrombin before the assay (N, cleaved yes); leucine zipper-Jun (C); made in house; host or cells: Drosophila Schneider 2 (S2) insect cells
Source text: The ability of a peptide to inhibit the interaction of DQ6 and a reference binding peptide at steady state was used to estimate the relative DQ6 binding capacity of test peptides. We used biotinylated EBV486-500 (aa: biotin-[…] (SEQ ID NO:45), synthesized by Genscript), a DQ6-binding peptide (epitope underlined) derived from Epstein-Barr virus nuclear antigen^25, as our reference peptide. Non-biotinylated test peptides included thirty 15-mer overlapping peptides derived from prepo-HCRT (Table 1, by Genscript) and the positive control peptide EBV486-500. The DQ6-CLIP87-101 construct contains a thrombin cleavage site in between CLIP87-101 and […]. To cleave the covalent linker and enable replacement of CLIP87-101 by high affinity DQ6 binders, soluble DQ6-CLIP87-101 at a concentration of 3 μM was incubated with 0.002 U/μl thrombin enzyme (Novagen, EMD Millipore) for 2 h at room temperature (RT) prior to peptide loading experiments. To test DQ6 binding capacity, a non-biotinylated peptide at 40 μM was mixed with 1 μM biotinylated EBV486-500 and incubated with 25 nM thrombin-cleaved DQ6-CLIP87-101. 100 nM soluble DM was added as a catalyst to increase the peptide exchange efficiency^44. […] Time resolved fluorescence representing DQ6-associated biotinylated EBV486-500 captured by SPV-L3 in each well was then quantified using the DELFIA Eu-N1 Streptavidin System (PerkinElmer).

[3] = test system: TCR27 transfectants of J76-NFATRE-luc cells; assay: T cell activation assay using a luciferase reporter, TCR27 transfectants with K562-DQ6 APCs; format: cell-based, human; parameters: dose or concentration left out as unconfirmed; details: DQ6-restricted presentation by K562-DQ6, 1 day
Source text: To encode the entire α/β chains of a candidate TCR, the nucleotide sequences for CDR3a and CDR3P were incorporated in frame with the corresponding V(D)J genes (IMGT/V-QUEST^37). TCRα/β genes were then synthesized and cloned into a plasmid pEF1α-TCRA_2A_TCRB_IRES-AcGFP1 (by GenScript). Each reconstructed plasmid uses a mammalian promoter, EF1a to direct co-expression of α and β chains of one candidate TCR. TCRA and TCRB are separated by the 2A self-cleaving peptide sequence. For selection purposes, the plasmid also encodes the green fluorescence protein (GFP) and neomycin resistance gene, with expression driven by separate promoters. TCR-encoding plasmids were then transfected into the TCRα/β deficient Jurkat cell line (J76-NFATRE-luc)^20 by nucleofection following the Amaxa Optimized protocol (Lonza). Transfectants were selected by G418 at a concentration of 1 mg/ml and recovered after 3-4 weeks of culturing in the RPMI medium supplemented with 10% HI FBS, 2 mM glutamine, and 1% PS. To avoid the heterogeneity in TCR expression observed in a polyclonal cell line, TCRαβ^+/GFP^+/CD3^+ cell transfectants were individually sorted by single cell FACS, to expand clonal cell lines originating from single cell transfectants. These clonal lines were then co-stained with PE anti-TCRα/β Abs (BD Biosciences) and APC DQ6-HCRT tetramers to confirm the expression of TCRs and validate their binding to tetramers using flow cytometric analysis.
The TCR transfectants of J76-NFATRE-luc cells expresses the NFAT-RE (response element)-luciferase reporter gene allowing the conversion of T cell activation signaling to luciferase activity^20. […] The co-culture was incubated with various stimuli at 37° C. for 1 day before quantification of the luciferase activity. […] The mixture was then transferred to a flat-bottom white 96-well plate (Costar) for a measurement of chemiluminescence using a plate reader.

[4] = biological target: soluble HLA-DQ6 (DQA1*01:02/DQB1*06:02), thrombin-cleaved DQ6-CLIP87-101 (human); assay: competition: 40 µM test peptide against 1 µM biotinylated EBV486-500 on 25 nM soluble DQ6 with 100 nM HLA-DM, SPV-L3 capture, DELFIA
[5] = biological target: T2, prepro-HCRT (hypocretin precursor) peptide on HLA-DQA1*01:02 / HLA-DQB1*06:02 (human); assay: multimer staining
T2 peptide: MNLPSTKVSWAAV

[6] = biological target: T3, prepro-HCRT (hypocretin precursor; C-terminus of HCRT2) peptide on HLA-DQA1*01:02 / HLA-DQB1*06:02 (human); assay: multimer staining
T3 peptide: SGNHAAGILTMGRR

[7] = biological target: T4, prepro-HCRT (hypocretin precursor) peptide on HLA-DQA1*01:02 / HLA-DQB1*06:02 (human); assay: activation reporter or marker
T4 peptide: ALLSSGAAAQPLP

## AGNHAAGILTLGKR [HCRT56-69]
[1]
  Frequencies of tetramer+ cells after in vitro stimulation with the corresponding peptide: significantly increased

## ALLSSGAAAQPLPDC [HCRT25-39]
[2]; competition assay, FIG. 2A
  DQ6 binder class: strong binder

## EBV486-500: a DQ6-binding peptide derived from Epstein-Barr virus nuclear antigen, reference and positive control peptide (Biotin-GGGRALLARSHVERTTDE) [reference compound]
[1]
  Frequencies of tetramer+ cells after in vitro stimulation with the corresponding peptide: time dependent enrichment

## MNLPSTKVSWAAV [HCRT1-13]
[3]
  TCR-mediated signaling (luciferase activity): failure of TCR27-mediated signaling

## MNLPSTKVSWAAVTL [HCRT1-15]
[2]; test peptide 40 μM, 1 μM biotinylated EBV486-500, 25 nM DQ6, 100 nM DM, pH 4.6, 37° C., 20 hours
  % Competition (inhibition of the indicator EBV peptide binding to DQ6): > 75%

## SGNHAAGILTM-NH2 [HCRT87-97-NH2]
[3]
  TCR-mediated signaling (luciferase activity): significant signaling response; also recorded: triggered stronger signaling

## SGNHAAGILTMGRR [HCRT87-100]
[1]; stained with the DQ6-HCRT56-69 tetramer, some T1N donors
  Enrichment of DQ6-HCRT56-69 tetramer+ cells in peptide-stimulated culture: enrichment
[1]
  Frequencies of tetramer+ cells after in vitro stimulation with the corresponding peptide: significantly increased
[3]
  TCR-mediated signaling (luciferase activity): able to trigger TCR-mediated activation signaling

## MNLPSTKVSWAAVTL [Hcrt1-15 peptide (…)]
[4]
  % competition: > 75%

B1: T1N-irrelevant TCR isolated from a CD8+ T cell (TCR)
alpha TRAV25 TRAJ42 CDR3: CAGTYGGSQGNLIF
beta TRBV19 TRBJ2-2 CDR3: CASSLRSTGELFF
[5]
  binding result: no recognition
[6]
  binding result: no recognition
[7]
  binding result: no recognition

B2: TCR26 (TCR)
alpha TRAV9-2 TRAJ5 CDR3: CALSGKDTGRRALTF
beta TRBV25-1 TRBJ2-1 CDR3: CASSASPNEQFF
[7]
  binding result: no recognition
